In US7018614B2, “Stabilization of radiopharmaceuticals labeled with 18-F” (Eastern Isotopes, Inc., priority 2002, dated 2006):

Experiment: Stability of FDG solution against radiolysis: Radio Chemical Purity (RCP) by TLC after storage
Assay type: physicochemical
Procedure: In all experiments, the RCP was determined using a standard Thin Layer Chromatography (TLC) method using 10 cm silica-coated glass plates supplied by Alltech (Deerfield, Ill.). A 95:5 mixture of acetonitrile and water was used as a mobile phase and a TLC plate scanner supplied by Bioscan (Washington, D.C.) was used to measure the radioactivity distribution on the plate. In most cases, the sample size was less than 1 μl.
[…] It should be noted, however, that most of the radiolysis takes place in the first 3–6 hours due to the fact that the radioactivity concentration decreases exponentially over time with a half-life of 1.82 hours. After 6 hours, only about 10% of the radioactivity remains and is probably not sufficient to cause any significant decomposition of the product.
In this experiment, the final product was prepared with an initial activity concentration of 10.8 GBq/ml (292 mCi/ml). […] Samples were kept in tightly sealed vials identical to those used for storage and delivery of FDG to customers. […]
It was added in an amount calculated to result, after dilution with water, in about a 0.05% concentration in the final product.
Samples 1, 2, and 3, each of 2 ml, were taken from the final product. To see if storage conditions affected the results, samples 1 and 2 were stored in vials while sample 3 was stored in a syringe identical to those that are used to deliver FDG to users. […]

[^18F] 2-Fluoro-2-Deoxy-D-glucose [FDG]
RCP after decline as a result of radiolysis (over a period of less than 12 hours, high activity concentration): less than 90%
RCP at the end of production (typical value, end of production): 98–100%
